The text below walks through data of PMC5495814, “The impact of the butterfly effect on human parainfluenza virus haemagglutinin-neuraminidase inhibitor design” (Scientific Reports, 2017).

In experiment [1] the target is T1, human neuraminidase 2 (hNeu2) (Homo sapiens, UniProt Q9Y3R4).
T1 construct: GST (own knowledge: pGEX-2T encodes an N-terminal GST with a thrombin site); made in house; host or cells: E. coli
The experiment is described as follows: NI assay with recombinant human neuraminidase 2. To be noted: inhibitors tested 0.001 μM to 1000 μM, 0.5 mM MUN, pH 5.5. The class given is biochemical. How it is done:
Finally, all inhibitors were assessed for cytotoxicity to human A549 cells with no toxicity observed at a concentration of 300 µM (data not shown). In addition, we investigated[9] the capacity of the synthesized inhibitors 5–8 to inhibit human neuraminidase 2 (hNeu2) compared with the well-described neuraminidase inhibitor Neu5Ac2en (2)[28].
The NI assay with human Neuraminidase 2 (hNeu2) was performed as previously described, using 60 ng of purified hNeu2 enzyme in reaction buffer/hNeu2 (NaOAc 50 mM, pH 5.5), supplemented with 10 μg BSA and 0.5 mM MUN per reaction. All inhibitors were tested in duplicate in the concentration range from 0.001 μM to 1000 μM. After 10 min of incubation with agitation (1000 rpm) at 37 °C, the enzymatic reaction was stopped with glycine buffer (glycine 0.25 M, pH 10.4) and the product fluorescence was measured in relative fluorescence units (RFU) using a Victor 3 multilabel reader (PerkinElmer, Waltham, MA). Controls were conducted with MUN and purified hNeu2, the enzymatic reaction was stopped at t = 0 for the negative control and at t = 10 min for the positive control.
The obtained data were normalised by background (negative control RFU) subtraction and processed data were analyzed with GraphPadPrism 4 (GraphPad Software Inc., La Jolla, CA) to calculate IC50 values. The concentration of inhibitor that reduced the neuraminidase activity by 50% compared to those of a non-treated virus/protein suspension was considered as the NI IC50 value.

The next experiment concerns hPIV-3. The experiment is described as follows: Virus growth inhibition by in situ ELISA in A549 cells.
Experiment [2] concerns the target hPIV-3 HN neuraminidase function (Human parainfluenza 3 virus, UniProt P08492). The experiment is described as follows: biochemical. On the set-up: species or system human parainfluenza virus type 3 (hPIV-3, strain C-243). To be noted: for IC50: NI IC50, purified hPIV-3, MUN substrate, pH 4.6, means of 3 independent experiments.
Experiment [3] has as its target hPIV-3 HN haemagglutinin function (Human parainfluenza 3 virus, UniProt P08492). The experiment is described as follows: cell-based. On the set-up: species or system human parainfluenza virus type 3 (hPIV-3). To be noted: HI IC50, human red blood cells, 4 °C, 90 min. How it is done:
The HN inhibitors were assessed in haemagglutination inhibition assays using human red blood cells (RBC) as previously described[10] with minor modifications. The lowest final concentration of hPIV-3 that leads to a complete agglutination of human-RBC at 4 °C is considered as 1 HAU. 4 haemagglutination units (HAU) of hPIV-3 (final 1 HAU per well) were pre-mixed with inhibitors of each tested concentration (4X dilution in PBS) on ice. Next, an equivalent volume of ice-cold 1% human-RBC in PBS was added to each well of the inhibitor/virus pre-mixture and the plate was then incubated for 90 min at 4 °C before determining the extent of haemagglutination inhibition.

In a further experiment the target is soluble hPIV-3 HN. On the set-up: method as in PMID 23740997. To be noted: in complex with soluble hPIV-3 HN; cited from earlier work.
Where [4] appears, read: Human respirovirus 3, A549, in Homo sapiens, read-out: Virus growth inhibition IC50, in situ ELISA, human cell line A549, 36–40 h.
Setting [5] is: read-out: Virus growth inhibition IC50, in situ ELISA, human cell line A549, 36–40 h.

Several values for one entry are separate records, joined by “and”; a condition that tells them apart may be missing. Equal values may be shown once. Read-outs that look alike come from different tables or passages of the source.

In general, IC50 refers to the concentration that inhibits the measured activity by half. In general, Kd refers to the concentration at which binding is half-saturated.

T1 sequence (Q9Y3R4 whole entry): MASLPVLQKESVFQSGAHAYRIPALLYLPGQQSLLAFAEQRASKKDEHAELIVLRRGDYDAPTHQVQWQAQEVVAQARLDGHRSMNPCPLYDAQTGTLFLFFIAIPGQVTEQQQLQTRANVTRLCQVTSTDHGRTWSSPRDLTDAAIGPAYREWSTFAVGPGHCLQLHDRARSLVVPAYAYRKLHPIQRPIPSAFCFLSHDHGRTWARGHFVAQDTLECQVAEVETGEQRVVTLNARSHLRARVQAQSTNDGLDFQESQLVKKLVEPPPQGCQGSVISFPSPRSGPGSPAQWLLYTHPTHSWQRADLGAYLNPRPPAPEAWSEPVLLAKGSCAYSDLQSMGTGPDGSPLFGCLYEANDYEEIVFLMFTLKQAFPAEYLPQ
Sequence of hPIV-3 HN neuraminidase function (P08492 whole entry): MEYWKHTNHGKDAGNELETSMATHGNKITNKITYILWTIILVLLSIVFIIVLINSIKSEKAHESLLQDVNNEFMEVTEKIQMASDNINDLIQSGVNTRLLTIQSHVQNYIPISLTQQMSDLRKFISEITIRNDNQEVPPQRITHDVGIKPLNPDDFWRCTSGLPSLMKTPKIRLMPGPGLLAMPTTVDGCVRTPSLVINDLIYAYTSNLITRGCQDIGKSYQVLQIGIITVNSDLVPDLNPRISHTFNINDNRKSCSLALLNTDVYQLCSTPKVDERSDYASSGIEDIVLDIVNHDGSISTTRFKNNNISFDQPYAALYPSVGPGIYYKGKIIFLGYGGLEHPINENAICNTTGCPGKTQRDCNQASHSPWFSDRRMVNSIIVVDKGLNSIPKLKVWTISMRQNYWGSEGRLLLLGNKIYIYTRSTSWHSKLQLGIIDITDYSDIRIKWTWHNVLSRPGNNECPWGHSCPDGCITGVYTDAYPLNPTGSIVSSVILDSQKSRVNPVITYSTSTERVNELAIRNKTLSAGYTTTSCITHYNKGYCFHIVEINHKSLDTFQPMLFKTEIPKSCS
Sequence of hPIV-3 HN haemagglutinin function (P08492 whole entry): as above

`CC(C)C(=O)N[C@H]1[C@H]([C@H](O)[C@H](O)CO)OC(C(=O)O)=C[C@@H]1n1cc(-c2ccccc2)nn1` [Inhibitor 5, reference compound]: the “Inhibition of hNeu2” value in experiment [1] is reported as “No inhibition”. Besides, the IC50 in the experiment on hPIV-3 (setting [4]) was 11.2 ± 0.9 µM; with hPIV-3 (setting [5]), 11.2 µM.

As to `COCc1cn([C@H]2C=C(C(=O)O)O[C@@H]([C@H](O)[C@H](O)CO)[C@@H]2NC(=O)C(C)C)nn1` [Inhibitor 6, reference compound], the IC50 in experiment [2] was 14.5 µM; in experiment [3], 3.88 µM and 3.9 µM; in the experiment on hPIV-3 (setting [4]) it was 82.4 ± 7.7 µM; with hPIV-3 (setting [5]), 82.4 µM. In addition, the “Inhibition of hNeu2” value in experiment [1] was “No inhibition”.

For `COCc1cn([C@@H]2[C@@H](NC(=O)C(C)C)[C@H]([C@H](O)[C@H](O)CO)O[C@@](F)(C(=O)O)[C@H]2F)nn1` [Inhibitor 8], the IC50 was 6.7 µM and 6.75 µM in experiment [2]; 57 µM in experiment [3]; 14.3 ± 0.3 µM with hPIV-3 (setting [4]); 14.3 µM in the experiment with hPIV-3 (setting [5]). Further, in experiment [2] (NI IC50 of 8 versus 6), the “increase in potency (NI) compared to Neu2en analogue 6” value came out at 2 fold. Moreover, in experiment [1], the “Inhibition of hNeu2” value is “No inhibition”.

For “Neu5Acα2–3 Galβ1–4GlcNAcβ1–3 Galβ1–4GlcNAc [3′SiaDiLN]”, the Kd at soluble hPIV-3 HN was 4300 µM.

With `CC(C)C(=O)N[C@H]1[C@H]([C@H](O)[C@H](O)CO)O[C@@](F)(C(=O)O)[C@@H](F)[C@@H]1n1cc(-c2ccccc2)nn1` [Inhibitor 7], the IC50 in experiment [2] was found to be 55.3 µM; in experiment [3], 775 µM; in the experiment with hPIV-3 (setting [4]), 40.1 ± 7 µM; with hPIV-3 (setting [5]), 40.1 µM. The “Inhibition of hNeu2” value in experiment [1] was “No inhibition”.
